Experimental data from patent US20160361398A1, “METHOD FOR THE TREATMENT OF MULTIPLE SCLEROSIS” (Vereniging voor Christelijk Wetenschappe Onderwijs, priority 2015, published 2016).
No end group written: not given here.

Key:
[1] = tested on: experimental autoimmune encephalomyelitis; details: intravenous administration; cited from earlier work
[2] = tested on: Th1 and Th17 cells generated from 2D2 CD4 T cells; assay: Inhibition of effector Th1 and Th17 cells generated from 2D2 T cells, re-stimulated with pulsed DCs; assay type: cell-based, mouse; details: supernatant after 24 hours; for secretion of effector cytokine by Th1 cells (IFN-gamma): FIG. 1E left panel; for secretion of effector cytokine by Th17 cells (IL-17): FIG. 1E right panel
Description: As stated hereinbefore, Th1 and Th17 are the effector CD4T cells that cause inflammation in MS. […] This was not observed when these effector cells were co-cultured with DCs loaded with non-sialylated MOG 35-55 (FIG. 1E). Thus, it was concluded that T cells generated in the presence of DCs exposed to α-2,6-Sia-MOG35-55, indeed were functional in that they were able to suppress MOG-specific effector T cells and, therefore, able to dampen ongoing inflammation. It follows that the disclosure may be applied for treating ongoing inflammation, such as the inflammation observed in MS patients, when, at the peak of the disease, auto-reactive, myelin-specific CD4^+ and CD8^+ T cells are involved in the demyelination of the neurons.
(§1) Antigen-specific nave CD4+CD62LhiCD25− T cells were purified from spleen and LN cell suspensions obtained from 2D2 mice using the Dynal mouse CD4+ CD62L+ T cell isolation kit II mouse (Miltenyi Biotec, Bergisch Gladbach, Germany) or by sorting on a MoFlo (DakoCytomation, Glostrup, Denmark). The resulting naïve CD4+ CD62L+CD25− T cell populations were typically 95% pure as assessed by flow cytometry. Naïve CD4+ T cells (5×10^4) were added to wells containing DCs (1×10^4) that were pulsed with indicated concentrations of antigen modified with a sialylated oligosaccharide or native antigen 3 hours prior. After 2 days, 10 U/ml recombinant mouse IL-2 (Invitrogen, Bleijswijk, The Netherlands) was added. T-cell polarization was evaluated on day 6 by intra-cellular staining for Foxp3 and IFN-γ following 5 hours restimulation with phorbol 12-myristate 13-acetate (PMA; […])/ionomycin (Sigma; 500 ng/ml) in the presence of Brefeldin A (Sigma; 5 μg/ml). For inhibition of effector Th1 and Th17 cells, Naïve 2D2 T cells were converted in Th1 or Th17 cells by culturing; one week later, effector T cells re-stimulated with DC pulsed with MOG or Sialylated MOG. After 24 hours, the supernatant was harvested for presence of IFN-γ or IL 17 as measure of activity of Th1 and Th17 effector cells, respectively.

[3] = tested on: MOG-responsive CD4+ T cells (2D2 T cells); assay: T helper differentiation: antigen-pulsed DCs co-cultured with naive 2D2 CD4+ T cells, intracellular staining for Foxp3 and IFN-γ; assay type: cell-based, mouse; details: cultured six days with 2D2 T cells; for induction of suppressive Foxp3+CD4+ T cells: FIG. 1A; for CD4+ IFN-γ+ MOG effector T cells: FIG. 1B
Description: For that purpose, DC were pulsed with α-2-6-Sia-MOG35-55 and a non-sialylated MOG 35-55 peptide as a control, and cultured for six days with MOG-responsive CD4^+ T cells (2D2 T cells (Bettelli et al., J. Exp. Med., 2003).
as §1

[4] = tested on: MOG-specific CD4+ T cells; assay: qRT-PCR of MOG-specific CD4+ T cells isolated on day 6 of co-culture with pulsed DCs; assay type: cell-based, mouse; details: for Foxp3 mRNA level (qRT-PCR, normalized to GAPDH): FIG. 1D right panel
Experimental: FIG. 1D: (Left panel) Expression of T-bet, which is a measure for IFN-γ-producing effector CD4 T cells (Th1). (Right panel) Foxp3 mRNA, which is a measure for Treg cells that suppress, were determined using qRT-PCR and subsequently normalized to housekeeping gene GAPDH, which is equal under all conditions.

[5] = tested on: MOG-specific CD4+ (2D2) T-cells; assay: IFN-γ in culture supernatants of DC / 2D2 T-cell co-cultures; assay type: cell-based, mouse; details: 2D2 T cells primed by antigen-loaded DCs; FIG. 1C
Experimental: as §1, with “For inhibition of effector Th1 and Th17 cells, Naïve 2D2 T cells were converted in Th1 or Th17 cells by culturing; one week later, effector T cells re-stimulated with DC pulsed with MOG or Sialylated MOG. After 24 hours, the supernatant was harvested for presence of IFN-γ or IL 17 as measure of activity of Th1 and Th17 effector cells, respectively.” left out
(§2) Cytokine production by T cells and DCs was assessed by cytometric bead arrays using the CBA Th1/2/17 kit and mouse inflammation kit, respectively (BD Biosciences), or by ELISA using specific antibody pairs (eBiosciences) following the manufacturers' instructions.

[6] = tested on: MOG-reactive effector T cells from EAE mice; assay: EAE splenocytes re-stimulated ex vivo with antigen-loaded DCs: IFN-γ production; assay type: cell-based, mouse; details: 4 days of culture; EAE mice with different scoring; FIG. 1G
Experimental: To determine the functionality of the MOG-reactive effector cells, IFN-γ production was measured (FIG. 1G).
(§3) Splenocytes from mice that suffered EAE were re-stimulated ex-vivo with DCs loaded with either non-sialylated MOG or α-2-6-Sia-MOG35-55 and as a control, DC with no antigen. DC and T cells were cultured as described in Example 2, as described above, for 4 days. 3H and IFN-γ was determined as described above.
as §2

[7] = tested on: MOG-specific effector CD4 T cells from EAE splenocytes; assay: EAE splenocytes re-stimulated ex vivo with antigen-loaded DCs: [3H]thymidine incorporation; assay type: cell-based, mouse; details: after 4 days of culture; EAE scores 1, 2 and 3; FIG. 1F
Experimental: To examine this even further, testing was performed to determine whether DCs exposed to α-2,6-Sia-MOG35-55 were able to inhibit MOG-specific effector T cells that were obtained from splenocytes from mice suffering from experimental autoimmune encephalomyelitis (EAE). To this effect, CD4 effector T cells were harvested from splenocytes of mice at various EAE clinical scores, representing different stages of effector T cell number and activity, wherein score 1 is the onset of disease and score 2 and 3 are the more severe phases of the disease.
Testing was performed to determine whether DCs ex vivo loaded with Sia-MOG could inhibit the proliferation of the MOG-specific effector CD4 T cells that were obtained from EAE mice.
DCs loaded with α-2-6-Sia-MOG35-55 or non-sialylated MOG35-55 were cultured with EAE splenocytes and, after 4 days of culture, [3H]thymidine incorporation was determined as a measure of proliferation and division of CD4 T cells (FIG. 1 F).
as §3

[8] = tested on: naive OVA-specific CD4+ T cells (OT-II); assay: Antigen specificity: loaded DCs challenged with OVA, co-cultured with OT-II cells, Foxp3+ CD4+ by flow cytometry; assay type: cell-based, mouse; details: for tolerogenic cells (Foxp3+ CD4+ T cells) in a population of OT-II cells: loaded DCs subsequently challenged with OVA
Experimental: (§4) For that purpose, dendritic cells were loaded with sia-OVA and subsequently challenged in the presence of specific CD4+ T cells with either OVA or with a myelin oligodendrocyte glycoprotein peptide (MOG 35-55).
(§5) The thus-loaded dendritic cells were then co-cultured with naive MOG-specific CD4+ T cells (called 2D2) in the presence of MOG 35-55 or with naive OVA-specific CD4+ T cells (called OT-II) in the presence of ovalbumin (OVA).
(§6) Subsequently, it was determined whether sia-OVA-loaded dendritic cells were able to induce tolerogenic T cells in an antigen-specific manner. This was done by determining the percentage of Foxp3+ CD4+ T cells by flow cytometry.

[9] = tested on: naive MOG-specific CD4+ T cells (2D2); assay: Antigen specificity: sia-OVA-loaded DCs challenged with MOG 35-55, co-cultured with 2D2 cells, Foxp3+ CD4+ by flow cytometry; assay type: cell-based, mouse; details: loaded DCs subsequently challenged with MOG 35-55
Experimental: as §4, §5, §6

Substance	secretion of effector cytokine by Th1 cells (IFN-gamma) [2]	secretion of effector cytokine by Th17 cells (IL-17) [2]	induction of suppressive Foxp3+CD4+ T cells [3]	CD4+ IFN-γ+ MOG effector T cells [3]	Foxp3 mRNA level (qRT-PCR, normalized to GAPDH) [4]	secreted IFN-γ in culture supernatants [5]	IFN-γ production of MOG-reactive effector cells [6]	proliferation of MOG-specific CD4 T cells ([3H]thymidine incorporation) [7]	tolerogenic cells (Foxp3+ CD4+ T cells) in a population of OT-II cells [8]	other results
MEVGWYRPPFSRVVHLYRNGK [non-sialylated MOG35-55, reference compound]	not observed	not observed	not induced	3.5%	hardly expressed	significant amounts	enhance	stimulate the proliferation		effect on experimental autoimmune encephalomyelitis [1]: suppresses; T-bet mRNA level (qRT-PCR, normalized to GAPDH) ([4]; FIG. 1D left panel): higher mRNA levels
OVA: ovalbumin, control antigen [reference compound]									did not induce tolerogenic cells above background levels	
sia-OVA: sia-2,3 and 2,6-conjugated ovalbumin									about 10%	tolerogenic cells (Foxp3+ CD4+ T cells) in a population of 2D2 cells [9]: did not induce tolerogenic cells above background levels
α-2-6-Sia-MOG35-55: MOG 35-55 peptide with N-terminal cysteine covalently attached via MPBH linker to 6′-sialyl-N-acetyllactosamine (Neu5Ac(α)2-6Gal(β)1-4GlcNAc) (GPGYPIRALVGDEAELPCRIS; not fully specified (N-terminus); also: N-terminal Cys linked via MPBH to 6'-sialyl-LacNAc (Neu5Ac(α)2-6Gal(β)1-4GlcNAc); UniProt Q61885 35-55, looked up, fragment)	significantly reduced	significantly reduced	majority of the CD4 T cells co-express Foxp3	0.3%	high levels	reduction	suppressed	clear reduction of proliferation		
α-2-6-Sia-OVA: OVA coupled to 6′-Sialyl-N-acetyllactosamine (6′-SLN)										immune tolerance against OVA ([8]; DCs exposed to the antigen): capable of inducing immune tolerance against OVA
